This is an account of results in patent US6960470B1 (priority 1998, dated 2005).

This assay deals with hippocampal slices from wt and Δ9 mutant (PS-1) animals. It is filed as cell-based.

Consider `CN1C(=O)CN=C(c2ccccc2F)c2cc([N+](=O)[O-])ccc21` [flunitrazepam], for which the “difference in potentiation between wt and Δ9 mutation slices post-tetanus” value is given as “no statistically significant difference between the two groups”.

Turning to AP5, the “AP5-sensitive potentials during tetanus, difference between wt and Δ9 mutant slices” value is reported as “no statistically significant difference between the two groups”.
